From patent US9586962B2, “Disubstituted octahydropyrrolo [3,4-C] pyrroles as orexin receptor modulators” (Janssen Pharmaceutica NV, priority 2011, dated 2017)

Target: human orexin 2 receptor (Homo sapiens (Human), UniProt O43614)
Test: Human orexin 2 receptor radioligand binding ([3H]EMPA competition, HEK293 cells)
Conditions: HEK293 cells expressing human orexin-2 receptor, read-out: OR 2 Ki

Sequence of human orexin 2 receptor (O43614 whole entry): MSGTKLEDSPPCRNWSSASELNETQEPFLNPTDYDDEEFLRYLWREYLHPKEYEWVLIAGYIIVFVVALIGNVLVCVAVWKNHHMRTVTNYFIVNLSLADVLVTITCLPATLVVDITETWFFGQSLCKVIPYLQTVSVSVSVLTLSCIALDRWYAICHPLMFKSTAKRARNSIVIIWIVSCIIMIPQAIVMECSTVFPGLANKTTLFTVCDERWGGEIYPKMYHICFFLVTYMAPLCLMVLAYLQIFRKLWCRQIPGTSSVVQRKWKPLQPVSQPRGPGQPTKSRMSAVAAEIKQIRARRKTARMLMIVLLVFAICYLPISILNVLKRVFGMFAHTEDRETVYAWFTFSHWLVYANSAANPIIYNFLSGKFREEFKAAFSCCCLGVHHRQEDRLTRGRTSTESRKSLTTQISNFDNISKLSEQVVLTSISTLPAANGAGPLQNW

SMILES | Ki
COc1ccc(C(=O)N2CC3CN(c4nc(C)cc(CO)n4)CC3C2)c(-n2nccn2)c1 (stereo not drawn) [Example 435, {2-[5-{[4-Methoxy-2-(2H-1,2,3-triazol-2-yl)phenyl]carbonyl}hexahydropyrrolo[3,4-c]pyrrol-2(1H)-yl]-6-methylpyrimidin-4-yl}methanol] | 24 nM
Cc1cc(C)nc(N2CC3CN(C(=O)c4ncccc4C(F)(F)F)CC3C2)n1 (stereo not drawn) [Example 413, 2-(4,6-Dimethylpyrimidin-2-yl)-5-{[3-(trifluoromethyl)pyridin-2-yl]carbonyl}octahydropyrrolo[3,4-c]pyrrole] | 9000 nM
Cc1cc(C)nc(N2CC3CN(C(=O)c4c(F)cccc4-c4nccs4)CC3C2)n1 (stereo not drawn) [Example 476, 2-(4,6-Dimethylpyrimidin-2-yl)-5-{[2-fluoro-6-(1,3-thiazol-2-yl)phenyl]carbonyl}octahydropyrrolo[3,4-c]pyrrole] | 15 nM
CCCOc1ccc(C)nc1C(=O)N1CC2CN(c3nc(C)cc(C)n3)CC2C1 (stereo not drawn) [Example 419, 2-(4,6-Dimethylpyrimidin-2-yl)-5-[(6-methyl-3-propoxypyridin-2-yl)carbonyl]octahydropyrrolo[3,4-c]pyrrole] | 1070 nM
CCCOc1ccc(C)nc1C(=O)N1CC2CN(c3cc(N(C)C)nc(C)n3)CC2C1 (stereo not drawn) [Example 424, N,N,2-Trimethyl-6-{5-[(6-methyl-3-propoxypyridin-2-yl)carbonyl]hexahydropyrrolo[3,4-c]pyrrol-2(1H)-yl}pyrimidin-4-amine] | 1160 nM
COc1ccnc(-c2cccc(F)c2C(=O)N2CC3CN(c4nc(C)cc(C)n4)CC3C2)n1 (stereo not drawn) [Example 483, 2-(4,6-Dimethylpyrimidin-2-yl)-5-{[2-fluoro-6-(4-methoxypyrimidin-2-yl)phenyl]carbonyl}octahydropyrrolo[3,4-c]pyrrole] | 11 nM
[2H]c1c(C([2H])([2H])[2H])nc(N2CC3CN(C(=O)c4cccc(F)c4-c4ncccn4)CC3C2)nc1C([2H])([2H])[2H] (stereo not drawn) [Example 431, 2-{4,6-Bis[(^2H3)methyl](^2H)pyrimidin-2-yl}-5-[(3-fluoro-2-pyrimidin-2-ylphenyl)carbonyl]octahydropyrrolo[3,4-c]pyrrole] | 18 nM
Cc1nc(N(C)C)cc(N2CC3CN(C(=O)c4c(F)cccc4-c4ncccn4)CC3C2)n1 (stereo not drawn) [Example 426, 6-{5-[(2-Fluoro-6-pyrimidin-2-ylphenyl)carbonyl]hexahydropyrrolo[3,4-c]pyrrol-2(1H)-yl}-N,N,2-trimethylpyrimidin-4-amine] | 36 nM
Cc1cc(C)nc(N2CC3CN(C(=O)c4c(C)nc5sccn45)CC3C2)n1 (stereo not drawn) [Example 464, 5-{[5-(4,6-Dimethylpyrimidin-2-yl)hexahydropyrrolo[3,4-c]pyrrol-2(1H)-yl]carbonyl}-6-methylimidazo[2,1-b][1,3]thiazole] | 3900 nM
Cc1cc(C)nc(N2CC3CN(C(=O)c4cc(F)ccc4-c4cccn4C)CC3C2)n1 (stereo not drawn) [Example 493, 2-(4,6-Dimethylpyrimidin-2-yl)-5-{[5-fluoro-2-(1-methyl-1H-pyrrol-2-yl)phenyl]carbonyl}octahydropyrrolo[3,4-c]pyrrole] | 10000 nM
Cc1cc(C)nc(N2CC3CN(C(=O)c4c(F)cccc4-c4ncccc4F)CC3C2)n1 (stereo not drawn) [Example 481, 2-(4,6-Dimethylpyrimidin-2-yl)-5-{[2-fluoro-6-(3-fluoropyridin-2-yl)phenyl]carbonyl}octahydropyrrolo[3,4-c]pyrrole] | 24 nM
Cc1cc(C)nc(N2CC3CN(C(=O)c4cccc5c4OCC5)CC3C2)n1 (stereo not drawn) [Example 463, 2-(2,3-Dihydro-1-benzofuran-7-ylcarbonyl)-5-(4,6-dimethylpyrimidin-2-yl)octahydropyrrolo[3,4-c]pyrrole] | 4000 nM
O=C(c1cccc(F)c1-c1cncs1)N1CC2CN(c3cnc4cc(F)c(F)cc4n3)CC2C1 (stereo not drawn) [Example 454, 6,7-Difluoro-2-[5-{[3-fluoro-2-(1,3-thiazol-5-yl)phenyl]carbonyl}hexahydropyrrolo[3,4-c]pyrrol-2(1H)-yl]quinoxaline] | 72 nM
O=C(c1cccc(F)c1-c1cscn1)N1CC2CN(c3cnc4cc(F)c(F)cc4n3)CC2C1 (stereo not drawn) [Example 455, 6,7-Difluoro-2-[5-{[3-fluoro-2-(1,3-thiazol-4-yl)phenyl]carbonyl}hexahydropyrrolo[3,4-c]pyrrol-2(1H)-yl]quinoxaline] | 32 nM
Cc1cc(CO)nc(N2CC3CN(C(=O)c4cccc(F)c4-c4nc(C)no4)CC3C2)n1 (stereo not drawn) [Example 436, {2-[5-{[3-Fluoro-2-(3-methyl-1,2,4-oxadiazol-5-yl)phenyl]carbonyl}hexahydropyrrolo[3,4-c]pyrrol-2(1H)-yl]-6-methylpyrimidin-4-yl}methanol] | 21 nM

The remaining lines, values ahead:

Ki | SMILES
580 nM | CCOc1ncccc1C(=O)N1CC2CN(c3cnc4cc(F)c(F)cc4n3)CC2C1 (stereo not drawn) [Example 447, 2-{5-[(2-Ethoxypyridin-3 yl)carbonyl]hexahydropyrrolo[3,4-c]pyrrol-2(1H)-yl}-6,7-difluoroquinoxaline]
109 nM | Cc1cccc(C(=O)N2CC3CN(c4cnc5cc(F)c(F)cc5n4)CC3C2)c1-n1nccn1 (stereo not drawn) [Example 460, 6,7-Difluoro-2-[5-{[3-methyl-2-(2H-1,2,3-triazol-2-yl)phenyl]carbonyl}hexahydropyrrolo[3,4-c]pyrrol-2(1H)-yl]quinoxaline]
244 nM | Cc1ccc(-c2ncccn2)c(C(=O)N2CC3CN(c4cc(N(C)C)nc(C)n4)CC3C2)n1 (stereo not drawn) [Example 428, N,N,2-Trimethyl-6-{5-[(6-methyl-3-pyrimidin-2-ylpyridin-2-yl)carbonyl]hexahydropyrrolo[3,4-c]pyrrol-2(1H)-yl}pyrimidin-4-amine]
108 nM | Cc1cc(C)nc(N2CC3CN(C(=O)c4nc(C)ccc4-c4ncccn4)CC3C2)n1 (stereo not drawn) [Example 421, 2-(4,6-Dimethylpyrimidin-2-yl)-5-[(6-methyl-3-pyrimidin-2-ylpyridin-2-yl)carbonyl]octahydropyrrolo[3,4-c]pyrrole]
31 nM | O=C(c1cccc(F)c1-c1[nH]ncc1F)N1CC2CN(c3cnc4cc(F)c(F)cc4n3)CC2C1 (stereo not drawn) [Example 456, 6,7-Difluoro-2-[5-{[3-fluoro-2-(4-fluoro-1H-pyrazol-5-yl)phenyl]carbonyl}hexahydropyrrolo[3,4-c]pyrrol-2(1H)-yl]quinoxaline]
27 nM | Cc1ccc(-c2ncccn2)c(C(=O)N2CC3CN(c4nc(C)c(C)c(C)n4)CC3C2)n1 (stereo not drawn) [Example 445, 2-[(6-Methyl-3-pyrimidin-2-ylpyridin-2-yl)carbonyl]-5-(4,5,6-trimethylpyrimidin-2-yl)octahydropyrrolo[3,4-c]pyrrole]
79 nM | Cc1nc(N(C)C)cc(N2CC3CN(C(=O)c4cccc(F)c4-c4ncccn4)CC3C2)n1 (stereo not drawn) [Example 427, 6-{5-[(3-Fluoro-2-pyrimidin-2-ylphenyl)carbonyl]hexahydropyrrolo[3,4-c]pyrrol-2(1H)-yl}-N, N,2-trimethylpyrimidin-4-amine]
340 nM | CCOc1ncccc1C(=O)N1CC2CN(c3ncc4cc(F)ccc4n3)CC2C1 (stereo not drawn) [Example 448, 2-{5-[(2-Ethoxypyridin-3-yl)carbonyl]hexahydropyrrolo[3,4-c]pyrrol-2(1H)-yl}-6-fluoroquinazoline]
10000 nM | Cc1cc(C)nc(N2CC3CN(C(=O)c4nc(C)ccc4-n4ccnn4)CC3C2)n1 (stereo not drawn) [Example 439, 2-(4,6-Dimethylpyrimidin-2-yl)-5-{[6-methyl-3-(1H-1,2,3-triazol-1-yl)pyridin-2-yl]carbonyl}octahydropyrrolo[3,4-c]pyrrole]
1350 nM | CCOc1ccc(C)nc1C(=O)N1CC2CN(c3cc(N(C)C)nc(C)n3)CC2C1 (stereo not drawn) [Example 420, 6-{5-[(3-Ethoxy-6-methylpyridin-2-yl)carbonyl]hexahydro-pyrrolo[3,4-c]pyrrol-2(1H)-yl}-N,N,2-trimethylpyrimidin-4-amine]
30 nM | Cc1cc(C)nc(N2CC3CN(C(=O)c4c(F)cccc4-c4cn(C)cn4)CC3C2)n1 (stereo not drawn) [Example 482, 2-(4,6-Dimethylpyrimidin-2-yl)-5-{[2-fluoro-6-(1-methyl-1H-imidazol-4-yl)phenyl]carbonyl}octahydropyrrolo[3,4-c]pyrrole]
49 nM | Cc1cc(C)nc(N2CC3CN(C(=O)c4c(F)cccc4-c4[nH]ncc4C(F)(F)F)CC3C2)n1 (stereo not drawn) [Example 478, 2-(4,6-Dimethylpyrimidin-2-yl)-5-({2-fluoro-6-[4-(trifluoromethyl)-1H-pyrazol-5-yl]phenyl}carbonyl)octahydropyrrolo[3,4-c]pyrrole]
334 nM | CCOc1ncccc1C(=O)N1CC2CN(c3nc(C)cc(C)n3)CC2C1 (stereo not drawn) [Example 415, 2-(4,6-Dimethylpyrimidin-2-yl)-5-[(2-ethoxypyridin-3-yl)carbonyl]octahydropyrrolo[3,4-c]pyrrole]
26 nM | Cc1nc(N2CC3CN(C(=O)c4ncc(Cl)cc4-n4nccn4)CC3C2)nc(C)c1C (stereo not drawn) [Example 442, 2-{[5-Chloro-3-(2H-1,2,3-triazol-2-yl)pyridin-2-yl]carbonyl}-5-(4,5,6-trimethylpyrimidin-2-yl)octahydropyrrolo[3,4-c]pyrrole]
26 nM | O=C(c1cccc(F)c1-c1ccccn1)N1CC2CN(c3cnc4cc(F)c(F)cc4n3)CC2C1 (stereo not drawn) [Example 452, 6,7-Difluoro-2-{5-[(3-fluoro-2-pyridin-2-ylphenyl)carbonyl]hexahydropyrrolo[3,4-c]pyrrol-2(1H)-yl}quinoxaline]
72 nM | Cc1cc(C)nc(N2CC3CN(C(=O)c4ccc(OC(F)F)cc4-n4nccn4)CC3C2)n1 (stereo not drawn) [Example 446, 2-{[4-(Difluoromethoxy)-2-(2H-1,2,3-triazol-2-yl)phenyl]carbonyl}-5-(4,6-dimethylpyrimidin-2-yl)octahydropyrrolo[3,4-c]pyrrole]
10000 nM | Cc1cc(C)nc(N2CC3CN(C(=O)c4c(F)cccc4-c4ccnnc4)CC3C2)n1 (stereo not drawn) [Example 488, 2-(4,6-Dimethylpyrimidin-2-yl)-5-[(2-fluoro-6-pyridazin-4-ylphenyl)carbonyl]octahydropyrrolo[3,4-c]pyrrole]
180 nM | Cc1cc(C)nc(N2CC3CN(C(=O)c4cc(F)ccc4-c4cscn4)CC3C2)n1 (stereo not drawn) [Example 494, 2-(4,6-Dimethylpyrimidin-2-yl)-5-{[5-fluoro-2-(1,3-thiazol-4-yl)phenyl]carbonyl}octahydropyrrolo[3,4-c]pyrrole]
